The nature of one data set: Tail bleeding time. The note with it: 5 min after injection. It is filed as in vivo, mice. The procedure:
Bleeding time was measured by a minor modified method described by Dejana et al (Dejana E, Villa S, de Gaetano G. Bleeding time in rats: a comparison of different experimental conditions. Thrombosis and haemostasis 1982 Aug. 24; 48(1):108-11). […] A sharp cut of 2 mm from tail tip of mouse was made 5 min after injection. The tail was immediately placed into a tube filled with saline, kept at 37° C. for measuring bleeding time.

For data set [1], the system named is platelet-rich thrombus formation in irradiated mesenteric venules. The data set can be described thus: Fluorescein sodium-induced platelet thrombus formation in mesenteric venules. The data set is classed as in vivo, mice.
The next data set deals with washed platelets. It is filed as cell-based, human. The note with it: for pIC50: read-out: IC50, inhibition of the collagen-induced aggregation.
Data set [2] is described as follows: Platelet count of whole blood after administration. The data set is classed as in vivo, mice. The note with it: 30 mg/kg, 5 min after administration; control 11.41±0.19. The procedure:
Male ICR mice (25-30 g) were intravenously (IV) injected with PBS or hexapeptide (30 mg/kg), and then blood was collected at 5 min after injection. The platelet number of the whole blood sample was counted by a Sysmex cell counter (Chuo-Ku Kobe, Japan). PRP was prepared immediately by centrifugation at 200 g for 5 min. Platelet counts in PRP were adjusted to 3×10^8/ml and aggregation assay was performed in an aggregometer.

A further data set concerns the target GPVI (Homo sapiens, UniProt Q9HCN6). The data set is classed as binding.
Data set [3] deals with [Ca2+]i elevation in platelets. The data set can be described thus: Intracellular Ca2+ level in Fura-2-loaded platelets stimulated with collagen. It is filed as cell-based. The note with it: Fura-2/AM; various concentrations. The procedure:
The concentration of intracellular free Ca^2+ was determined using a fluorescent probe, Fura-2/AM, according to the method of Pollock and Rink (Pollock W K, Rink T J. Thrombin and ionomycin can raise platelet cytosolic Ca2+ to micromolar levels by discharge of internal Ca2+ stores: studies using fura-2. Biochemical and biophysical research communications 1986 Aug. 29; 139(1):308-14). Fura-2/AM—loaded platelets were prepared as the washed platelets except washing with Ca^2+-free Tyrode solution and allowed platelets to uptake Fura-2/AM (5 μM) for 30 min in the first wash. The intracellular Ca^2+ level of Fura-2-loaded platelets (3×10^8/ml) in the presence of 1 mM of Ca^2+ was measured by the fluorescence change (excitation at 339 nm, emission at 500 nm) with a Hitachi fluorescence spectrophotometer.

Data set [4] concerns platelet-rich plasma (PRP) prepared from mice. Kind of data set: Ex vivo platelet aggregation study (PRP of treated mice, collagen). It is filed as in vivo. The note with it: 10 mg/kg; collagen 3 μg/ml. The procedure:
[…] The platelet number of the whole blood sample was counted by a Sysmex cell counter (Chuo-Ku Kobe, Japan). PRP was prepared immediately by centrifugation at 200 g for 5 min. Platelet counts in PRP were adjusted to 3×10^8/ml and aggregation assay was performed in an aggregometer.

pIC50: −log10 of the molar value. Values joined by “and” are separate entries in the source; they are usually repeats but may differ in a detail not shown here. Equal values may be shown once. “Also recorded” adds a separate entry of the source. No end group written: not given here.

Sequence of GPVI (Q9HCN6 21-339): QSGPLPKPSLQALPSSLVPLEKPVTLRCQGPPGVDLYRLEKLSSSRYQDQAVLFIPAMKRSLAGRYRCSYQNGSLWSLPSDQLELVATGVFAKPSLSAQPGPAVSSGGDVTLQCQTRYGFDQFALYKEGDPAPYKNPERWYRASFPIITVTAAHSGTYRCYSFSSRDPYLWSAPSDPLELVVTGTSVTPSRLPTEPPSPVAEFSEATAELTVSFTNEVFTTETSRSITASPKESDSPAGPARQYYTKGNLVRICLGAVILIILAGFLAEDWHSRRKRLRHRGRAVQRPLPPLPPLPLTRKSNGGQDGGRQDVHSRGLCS
Sequence of GPVI (P30273 19-86, further chain): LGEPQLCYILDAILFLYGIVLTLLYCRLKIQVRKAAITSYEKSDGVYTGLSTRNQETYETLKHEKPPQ

`CC(=O)Oc1ccccc1C(=O)O` [aspirin, reference compound] gave a Bleeding time in the data set “Tail bleeding time” (250 mg/kg IV) of 8.20 ± 0.91 min. Also, the “Occlusion time” value in data set [1] (250 mg/kg, control (PBS) 111.1 ± 5.1 s) turned out to be 298.7 ± 29.6 s; in data set [1] (250 mg/kg, control (PBS) 111.1 ± 5.1 s, listed as Aspirin) it was 298.7 ± 29.6 s.
`CCCCS(=O)(=O)N[C@@H](Cc1ccc(OCCCCC2CCNCC2)cc1)C(=O)O` [tirofiban] gave a Bleeding time in “Tail bleeding time” (0.4 mg/kg IV) of 4.20 ± 1.20 min.
The pIC50 is the IC50 on a negative log10 scale, so that one unit is a factor of ten. In the case of C(dK)WM(dN)V [d-form Tro-α6], in the data set on washed platelets, the “IC50, inhibition of the collagen-induced aggregation” value is given as “(IC50: 6.82 ± 3.34 μg/ml”; the “Inhibition of the collagen-induced aggregation (%)” value (“Inhibition … (%)” for short) turned out to be 89.44 ± 6.49%; the pIC50 is 5.06.
Take CKAMNV [Tro-α6 W116A]: in the data set on washed platelets, the “Inhibition … (%)” value is 12.28 ± 2.40% and the “Inhibitory activity on collagen-induced platelet aggregation (in words)” value is “decreased dramatically; also recorded: diminished”.
For CKWANV [Tro-α6 M117A], the “Inhibition … (%)” value in the data set on washed platelets is reported as 52.91 ± 15.90%.
Take CKWMNV [Tro-α6, CKWMNV]: the Platelet count in data set [2] is recorded as 11.18±0.30 ×10^8/ml.
CWNKMV [Tro-α6 scramble]: the “Inhibitory activity on collagen-induced platelet aggregation (in words)” value with washed platelets is given as “little effect”.
In the case of GFCKWMNVAC [Tro-α10], the “Binding of anti-GPVI mAb (326E12) to platelets” value on GPVI is “specifically inhibited”. For the same compound, the “Collagen-evoked increase of [Ca2+]i” value in data set [3] is “inhibited by decapeptide in a concentration-dependent manner”. Further, the “% of inhibition, collagen-induced platelet aggregation ex vivo” value in data set [4] is 55.87 ± 10.82 (n = 11) %. In data set [1] (10 mg/kg, control (PBS) 153.0 ± 13.5 s), the “Occlusion time” value was found to be 294.5 ± 25.4 s. The “Occlusion time” value in data set [1] (10 mg/kg, control (PBS) 153.0 ± 13.5 s, listed as Decapeptide) came to 294.5 ± 25.4 s. For the same compound, in the data set on washed platelets, the “IC50, inhibition of the collagen-induced aggregation” value is listed as 93.75 ± 6.25 (IC50: 35.17 ± 11.00; the “Inhibition … (%)” value is 60% and 93.75 ± 6.25 (IC50: 35.17 ± 11.00%; the pIC50 was 4.52.
As for RKWVNY [Agg-α6], the “Inhibition … (%)” value in the data set with washed platelets is 21.67 ± 9.33%.

These data come from patent US9617302B2 (priority 2011, dated 2017).
